The values below come from patent publication US9353419B2, “Biomarkers for IAP inhibitor therapy” (Novartis AG, priority 2012, dated 2016).

Experiment [1] deals with patient-derived tumor models representing triple negative breast cancer, NSCLC and pancreatic cancer. As to the kind of experiment: single agent activity in patient-derived tumor models (primary human tumors grown as xenografts in mice). It counts as in vivo. The source says:
In addition, (S)—N—((S)-1-Cyclohexyl-2-{(S)-2-[4-(4-fluoro-benzoyl)-thiazol-2-yl]-pyrrolidin-1-yl}-2-oxo-ethyl)-2-methylamino-propionamide has been tested for single agent activity in 55 patient-derived tumor models representing triple negative breast cancer, NSCLC and pancreatic cancer models.

In experiment [2] the test system is panel of >500 tumor cell lines. As to the kind of experiment: 72 hour proliferation assay, single agent cellular activity against tumor cell line panel. It counts as cell-based. The text has this:
We used a statistical framework that integrates pharmacological data together with genetic and mRNA expression data in order to develop biomarkers for predicting response to IAP inhibitors. Using genomic data generated as part of the Cancer Cell Line Encyclopedia collection (Barretina J S, Caponigro G, Stransky N et al (2012) Nature; 483:603-7), we assembled gene copy number, mRNA expression and mutation data into a single matrix. Single agent cellular activity of various IAP antagonists was assessed against a panel of >500 tumor cell lines using a 72 hour proliferation assay. We classified these cell lines into sensitive, intermediate and refractory classes based on the distribution of IC50 data and manual curation of individual responses. A statistical test was applied in order to identify genomic “features” that could differentiate IAP antagonist-sensitive cell lines from refractory lines. Among the top-ranked genes showing differential mRNA expression were TNF and RIPK1, two genes with evidence for apoptotic response to IAP antagonists based on previous experimental studies involving one or a few cell lines. We are thus able to extend prior observations on limited experiments systematically to a large set of data and identified an additional set of seven genes (CXLC10, CCL5, NFKBIA, HERC5, CDYL, STK39 and MAPK14), whose mRNAs were differentially expressed in sensitive compared refractory lines.
We built a predictive machine learning model using the Naive Bayes classifier based on the 9-gene signature as well as a 2-gene TNF/RIPK1 signature. […] For example, at model cutoffs optimized to obtain balanced performance between sensitivity and specificity for each model, the signatures yielded response rates of 16-18% in cross-validation compared to 8% response rate at random without any selection. This improved response rate was further validated in independent experimental testing of a compound-naive set of cell lines that were predicted to be sensitive (AUCs in Table 2).

Turning to `CN[C@@H](C)C(=O)N[C@H](C(=O)N1CCC[C@H]1c1nc(C(=O)c2ccc(F)cc2)cs1)C1CCCCC1` [(S)—N—((S)-1-Cyclohexyl-2-{(S)-2-[4-(4-fluoro-benzoyl)-thiazol-2-yl]-pyrrolidin-1-yl}-2-oxo-ethyl)-2-methylamino-propionamide], the “single agent activity (range of responses)” value in experiment [1] (55 patient-derived tumor models) was “ranging from tumor regression to no effect”. For the same compound, the response rate is on record as 11% in experiment [1] (at random, 55 patient-derived tumor models); ~30% in experiment [1] (models selected by 2-gene, 3-gene and 9-gene signatures, balanced model cutoffs). Moreover, the “cell line response rate” value is recorded as 8% in experiment [2] (at random, without any selection ("all-comers" cell lines)) and 16-18% in experiment [2] (cell lines selected by gene signatures (2-gene, 9-gene), balanced model cutoffs, cross-validation). Besides, in experiment [2] (at several model cutoff regimes of the predictive signatures), the “increase in response rate compared to random or "all-comers" cell lines” value is recorded as “two- to three-fold”.
